From the supplement of paper PMC5752671

Columns and labels:
Settings in all cases: 4 days
EOL-1 = assay: IC50 (cell viability) (log10 M)
Outline: (§1)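 Listed values are the IC50, taken from fitted curves. Each is the log10 M concentration at which a four-parameter curve crosses 50% viability; where that point is not reached, the highest concentration tested is given. Fourteen leukemia cell lines on extracellular-matrix-coated 384-well plates were exposed in duplicate to eight drug concentrations within 10^–12–10^–4 M, and viability was read with CellTiter-Glo after 4 days.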

HL60 [1] = assay: IC50 (cell viability) (log10 M)
Outline: as §1

KASUMI1 [2] = assay: IC50 (cell viability) (log10 M)
Outline: as §1

KG1 = assay: IC50 (cell viability) (log10 M)
Outline: as §1

MOLM/13 [3] = assay: IC50 (cell viability) (log10 M)
Outline: as §1

MOLM/16 = assay: IC50 (cell viability) (log10 M)
Outline: as §1

MV4.11 [4] = assay: IC50 (cell viability) (log10 M)
Outline: as §1

NB4 = assay: IC50 (cell viability) (log10 M)
Outline: as §1

OCI-AML2 = assay: IC50 (cell viability) (log10 M)
Outline: as §1

OCI-AML3 = assay: IC50 (cell viability) (log10 M)
Outline: as §1

PL-21 [5] = assay: IC50 (cell viability) (log10 M)
Outline: as §1

SKM1 = assay: IC50 (cell viability) (log10 M)
Outline: as §1

THP-1 [6] = assay: IC50 (cell viability) (log10 M)
Outline: as §1

U937 = assay: IC50 (cell viability) (log10 M)
Outline: as §1

HL60 [7] = assay: area under dose-response curve (cell viability) (AUC (arbitrary, % viability x log concentration)); higher = less sensitive (more viable)
Outline: (§2)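 The value given is the area under a fitted sigmoid dose-response curve. That sigmoid had four parameters and was fitted to duplicate-averaged data from fourteen leukemia cell lines grown on extracellular-matrix-coated 384-well plates. One day after plating, drugs were robotically dosed in duplicate at eight concentrations spanning 4–5 logs between 10^–12 and 10^–4 M, chosen per drug, and viability was read with CellTiter-Glo 4 days later.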

KASUMI1 [8] = assay: as above
Outline: as §2

MOLM/13 [9] = assay: as above
Outline: as §2

MV4.11 [10] = assay: as above
Outline: as §2

PL-21 [11] = assay: as above
Outline: as §2

THP-1 [12] = assay: as above
Outline: as §2

SMILES | IC50 (log10 M) (EOL-1) | IC50 (log10 M) (HL60 [1]) | IC50 (log10 M) (KASUMI1 [2]) | IC50 (log10 M) (KG1) | IC50 (log10 M) (MOLM/13 [3]) | IC50 (log10 M) (MOLM/16) | IC50 (log10 M) (MV4.11 [4]) | IC50 (log10 M) (NB4) | IC50 (log10 M) (OCI-AML2) | IC50 (log10 M) (OCI-AML3) | IC50 (log10 M) (PL-21 [5]) | IC50 (log10 M) (SKM1) | IC50 (log10 M) (THP-1 [6]) | IC50 (log10 M) (U937) | area under dose-response curve (HL60 [7]) | area under dose-response curve (KASUMI1 [8]) | area under dose-response curve (MOLM/13 [9]) | area under dose-response curve (MV4.11 [10]) | area under dose-response curve (PL-21 [11]) | area under dose-response curve (THP-1 [12])
Nc1ccccc1NC(=O)c1ccc(CNC(=O)OCc2cccnc2)cc1 [MS-275] | -7.34 | -6.6 | -6.78 | -6.27 | -6.82 | -7.03 | -6.86 | -6.85 | -6.78 | -6.64 | -6.61 | -6.84 | -6.13 | -6.6 | 490 | 466 | 459 | 436 | 450 | 558
Cc1ccc(NC(=O)c2ccc(CN3CCN(C)CC3)cc2)cc1Nc1nc(-c2cccnc2)cs1 [Masitinib] | -7.33 | > -5 | -5.32 | > -5 | -5.11 | -5.22 | -5.28 | > -5 | > -5 | -5.01 | -5.36 | > -5 | > -5 | -5.07 | 669 | 555 | 693 | 596 | 599 | 659
N[C@@H](Cc1ccc(N(CCCl)CCCl)cc1)C(=O)O [Melphalan] | -6.64 | -5.55 | -5.38 | -5.44 | -6.22 | -5.53 | -6.72 | -6.08 | -6.57 | -5.91 | -5.39 | -5.41 | -5.55 | -5.99 | 621 | 610 | 537 | 423 | 569 | 628
S=c1[nH]cnc2nc[nH]c12 [Mercaptopurine] | > -5 | > -5 | > -5 | > -5 | -5.71 | > -5 | > -5 | > -5 | -5.74 | > -5 | > -5 | > -5 | > -5 | > -5 | 708 | 693 | 603 | 632 | 577 | 663
CN(Cc1cnc2nc(N)nc(N)c2n1)c1ccc(C(=O)N[C@@H](CCC(=O)O)C(=O)O)cc1 [Methotrexate] | > -5 | > -5 | > -5 | > -5 | < -8.48 | > -5 | < -8.48 | < -8.48 | < -8.48 | < -8.48 | > -5 | > -5 | -7.82 | > -5 | 751 | 708 | 28.8 | 49.4 | 503 | 366
CO[C@@]12[C@H](COC(N)=O)C3=C(C(=O)C(C)=C(N)C3=O)N1C[C@@H]1N[C@@H]12 [Mitomycin C] | -8.21 | -6.97 | -6.29 | -6.54 | -7.55 | -7.38 | < -8.48 | -7.79 | < -8.48 | -7.53 | -6.12 | -7.15 | -7.5 | -7.18 | 419 | 453 | 322 | 181 | 486 | 384
FC(F)(F)c1ccc(/C=C/c2nc(COc3ccc(CCCCn4ccnn4)cc3)co2)cc1 [Mubritinib] | -7.63 | > -5 | > -5 | > -5 | > -5 | -6.88 | > -5 | -6.42 | > -5 | > -5 | > -5 | > -5 | > -5 | -7.27 | 611 | 534 | 604 | 560 | 515 | 514
CCNC(=O)c1noc(-c2cc(C(C)C)c(O)cc2O)c1-c1ccc(CN2CCOCC2)cc1 [NVP-AUY-922] | -9.55 | -8.8 | -9.19 | -8.55 | -7.27 | -9.61 | -9.64 | -8.86 | -9.28 | -8.71 | -8.84 | -8.91 | -8.49 | -9.02 | 299 | 213 | 313 | 144 | 251 | 359
Cc1c(C(=O)Nc2ccc(N3C[C@@H](C)O[C@@H](C)C3)nc2)cccc1-c1ccc(OC(F)(F)F)cc1 [NVP-LDE-225] | -5.16 | > -5 | > -5 | > -5 | > -5 | > -5 | > -5 | > -5 | > -5 | > -5 | > -5 | > -5 | > -5 | > -5 | 685 | 658 | 643 | 656 | 614 | 660
COc1cc(N2CCC(N3CCN(C)CC3)CC2)ccc1Nc1ncc(Cl)c(Nc2ccccc2S(=O)(=O)C(C)C)n1 [NVP-TAE-684] | -5.97 | -5.65 | -5.7 | -5.7 | -5.8 | -5.56 | -5.83 | -5.25 | -5.56 | > -5 | -5.79 | -5.47 | > -5 | > -5 | 580 | 560 | 556 | 548 | 511 | 644
Cc1cn(-c2cc(NC(=O)c3ccc(C)c(Nc4nccc(-c5cccnc5)n4)c3)cc(C(F)(F)F)c2)cn1 [Nilotinib] | -7.48 | > -5 | -5.59 | > -5 | -5.25 | -5.38 | -5.28 | > -5 | -5.44 | -5.4 | -5.26 | -5.19 | -5.09 | -5.57 | 632 | 458 | 604 | 601 | 550 | 605
COc1cccc2cc(-c3nc([C@H]4CC[C@H](C(=O)O)CC4)n4ncnc(N)c34)[nH]c12 [OSI-027] | -8.18 | -5.4 | -5.9 | -5.26 | -5.97 | -6.66 | -6.48 | -5.52 | -5.73 | -6.16 | -6.24 | -5.68 | -5.85 | -6.28 | 576 | 521 | 516 | 499 | 491 | 566
C[C@]1(O)C[C@@H](c2nc(-c3ccc4ccc(-c5ccccc5)nc4c3)c3c(N)nccn32)C1 [OSI-906] | -5.74 | -6.31 | -5.67 | > -5 | > -5 | -5.44 | > -5 | -5.56 | -5.38 | > -5 | -6.24 | -5.56 | > -5 | > -5 | 481 | 503 | 616 | 641 | 478 | 658
O=C(c1cc(Cc2n[nH]c(=O)c3ccccc23)ccc1F)N1CCN(C(=O)C2CC2)CC1 [Olaparib] | -5.64 | > -5 | > -5 | > -5 | -5.32 | -5.12 | -5.65 | -5.1 | -5.5 | > -5 | > -5 | > -5 | -5.34 | > -5 | 657 | 639 | 530 | 500 | 569 | 656
C[C@@H]1C[C@H]2[C@@H]3CCC4=CC(=O)C=C[C@]4(C)[C@@]3(F)[C@@H](O)C[C@]2(C)[C@@]1(O)C(=O)CO [dexamethasone] | > -5 | > -5 | > -5 | > -5 | > -5 | > -5 | > -5 | > -5 | > -5 | > -5 | > -5 | > -5 | > -5 | > -5 | 806 | 538 | 657 | 767 | 598 | 795
